BindingDB's records for doi:10.1111/j.1747-0285.2009.00833.x (Bayer Healthcare, 2009)

Biological target: Heat shock protein HSP 90-alpha (Homo sapiens, UniProt P07900)
Assay: Competition Assay
Details: pH 7.4
Excerpt: To assess the affinity of compounds binding to Hsp90, we measured their ability to compete with the binding of a fluorescent analog of GA (GM-Bodipy) to Hsp90 using fluoresence polarization.

IC50 | SMILES
0.04 nM | CCOC(=O)NCc1ccc(-n2c(-c3cc(C(C)C)c(O)cc3O)n[nH]c2=S)cc1 [BX-2819]
0.2 nM | CCc1cc(-c2nnc(S)n2-c2cccc3ccccc23)c(O)cc1O [Ethyl analog, 4]
0.1 nM | CCOC(=O)NCc1ccc(-n2c(-c3ccc(O)cc3O)n[nH]c2=S)cc1 [Ethyl carbamate analog, 3]
0.3 nM | Oc1ccc(-c2nnc(S)n2-c2cccc3ccccc23)c(O)c1 [Resorcinol analog, 1]
0.5 nM | Oc1ccc(-c2nnc(S)n2-c2ccccc2)c(O)c1 [Unsubstituted phenyl ring analog, 2]
0.1 nM | CC(C)c1cc(-c2n[nH]c(=S)n2-c2cccc3ccccc23)c(O)cc1O [lspropyl analog, 5]
